Test results reported in publication PMC8333062, “Chemical tools for epichaperome-mediated interactome dysfunctions of the central nervous system” (Nature Communications, 2021).

How the values were obtained:
[1] = target: T1, CYP1A2 (Homo sapiens, UniProt P05177); assay: Cytochrome P450 profiling, furafylline; format: in vitro ADME; settings: for % PU-HZ151 remaining: Furafylline
T1 sequence (P05177 1-516): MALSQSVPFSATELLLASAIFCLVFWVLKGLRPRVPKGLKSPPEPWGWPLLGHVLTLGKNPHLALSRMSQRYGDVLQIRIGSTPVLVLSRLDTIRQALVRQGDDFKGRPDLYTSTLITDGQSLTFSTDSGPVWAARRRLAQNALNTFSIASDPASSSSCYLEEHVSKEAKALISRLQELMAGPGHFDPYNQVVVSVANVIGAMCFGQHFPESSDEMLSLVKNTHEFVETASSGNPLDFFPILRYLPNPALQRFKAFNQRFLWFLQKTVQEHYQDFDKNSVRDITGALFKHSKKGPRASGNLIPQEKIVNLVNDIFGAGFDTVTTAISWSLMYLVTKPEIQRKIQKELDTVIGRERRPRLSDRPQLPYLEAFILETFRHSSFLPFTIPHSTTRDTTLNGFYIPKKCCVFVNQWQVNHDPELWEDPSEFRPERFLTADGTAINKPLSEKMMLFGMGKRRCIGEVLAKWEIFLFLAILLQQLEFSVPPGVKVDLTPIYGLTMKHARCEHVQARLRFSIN
Protocol: To identify cytochrome P450 enzymes responsible for PU-HZ151’s metabolism in human liver microsomes the following procedure was followed. Phosphate buffer (100 mM, pH 7.4) was prepared monthly and stored at 4 °C. Frozen stock solutions of human liver microsomes (Life Technologies; Cat# HMMCPL) were used once after thawing and were not refrozen. NADPH stock solution (50 mM) in distilled water was prepared fresh daily. […] The stock solutions of these P450 inhibitors were prepared in DMSO. […] The concentration of the chemical inhibitors used in the assay were furafylline (10 μM), tranylcypromine (2 μM), ketoconazole (1 μM), troleandomycin (20 μM), orphenadrine (50 μM), montelukast (3 μM), sulfaphenazole (10 μM), benzylnirvanol (1 μM), quinidine (1 μM), and 1-aminobenzotriazole (1 mM) for all the P450 enzymes. Timing of the reactions was started following the addition of NADPH/magnesium chloride mix and PU-HZ151. Time-dependent chemical inhibitors (furafylline, troleandomycin, orphenadrine, and 1-aminobenzotriazole) were preincubated with human microsomes in the presence of NADPH and magnesium chloride for 15 min before the addition of PU-HZ151 and timing of reactions was started after addition of PU-HZ151. […] Following brief vortexing and centrifugation, a 200 µL aliquot of the supernatant was transferred to a tube, and 10 µL of haloperidol (1 µg mL^−1) as internal standard was added. Following brief vortexing and centrifugation, 50 µL of supernatant was added to a 96-well plate for subsequent LC-MS/MS analysis. PU-HZ151 was similarly tested as above in the absence of CYP inhibitors for comparative purposes. All samples were assayed in duplicate. […] This was similarly performed for incubations of PU-HZ151 performed in the absence of CYP inhibitor.

[2] = target: T2, 97 kinases (Homo sapiens, UniProt O14920); assay: scanEDGE off-target screen; format: binding; settings: read-out: %Ctrl IKK-beta
T2 construct: purchased Ambit Biosciences (scanEDGE / KINOMEscan) scanEDGE 97 kinase panel; host or cells: T7 phage in E. coli BL21-derived host; remaining kinases in HEK-293 cells

[3] = target: T3, 97 kinases (Homo sapiens, UniProt Q86V86); assay: scanEDGE off-target screen; format: binding; settings: read-out: %Ctrl PIM3
T3 construct: purchased Ambit Biosciences (scanEDGE / KINOMEscan) scanEDGE 97 kinase panel; host or cells: T7 phage in E. coli BL21-derived host; remaining kinases in HEK-293 cells

[4] = target: T4, 97 kinases (Homo sapiens, UniProt Q16539); assay: scanEDGE off-target screen; format: binding; settings: read-out: %Ctrl p38-alpha
T4 construct: purchased Ambit Biosciences (scanEDGE / KINOMEscan) scanEDGE 97 kinase panel; host or cells: T7 phage in E. coli BL21-derived host; remaining kinases in HEK-293 cells
T4 sequence (Q16539 whole entry): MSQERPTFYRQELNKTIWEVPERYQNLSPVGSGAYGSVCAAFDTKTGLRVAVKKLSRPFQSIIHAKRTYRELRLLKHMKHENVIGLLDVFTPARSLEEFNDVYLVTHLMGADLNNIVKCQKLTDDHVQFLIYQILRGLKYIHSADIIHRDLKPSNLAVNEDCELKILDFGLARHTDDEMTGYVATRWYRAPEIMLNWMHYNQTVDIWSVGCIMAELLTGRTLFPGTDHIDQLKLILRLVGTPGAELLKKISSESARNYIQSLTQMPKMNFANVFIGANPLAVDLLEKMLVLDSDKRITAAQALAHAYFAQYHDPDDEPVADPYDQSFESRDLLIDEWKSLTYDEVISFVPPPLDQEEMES

[5] = target: T5, 97 kinases (Homo sapiens, UniProt P36507); assay: scanEDGE off-target screen; format: binding; settings: read-out: %Ctrl MEK2
T5 construct: purchased Ambit Biosciences (scanEDGE / KINOMEscan) scanEDGE 97 kinase panel; host or cells: T7 phage in E. coli BL21-derived host; remaining kinases in HEK-293 cells
T5 sequence (P36507 whole entry): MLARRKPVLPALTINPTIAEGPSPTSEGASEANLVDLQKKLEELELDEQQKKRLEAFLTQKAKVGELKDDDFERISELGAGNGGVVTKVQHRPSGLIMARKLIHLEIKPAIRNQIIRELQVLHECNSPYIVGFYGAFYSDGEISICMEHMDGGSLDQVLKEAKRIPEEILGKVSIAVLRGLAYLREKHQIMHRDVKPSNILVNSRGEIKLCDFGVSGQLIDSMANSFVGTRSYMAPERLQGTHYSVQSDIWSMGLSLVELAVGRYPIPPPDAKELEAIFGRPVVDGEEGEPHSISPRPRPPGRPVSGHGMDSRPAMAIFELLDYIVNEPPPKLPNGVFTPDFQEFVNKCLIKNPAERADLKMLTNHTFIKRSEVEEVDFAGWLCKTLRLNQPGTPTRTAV

[6] = target: T6, 97 kinases (Homo sapiens, UniProt P07949); assay: scanEDGE off-target screen; format: binding; settings: read-out: %Ctrl RET
T6 construct: purchased Ambit Biosciences (scanEDGE / KINOMEscan) scanEDGE 97 kinase panel; host or cells: T7 phage in E. coli BL21-derived host; remaining kinases in HEK-293 cells
T6 sequence (P07949 29-1114): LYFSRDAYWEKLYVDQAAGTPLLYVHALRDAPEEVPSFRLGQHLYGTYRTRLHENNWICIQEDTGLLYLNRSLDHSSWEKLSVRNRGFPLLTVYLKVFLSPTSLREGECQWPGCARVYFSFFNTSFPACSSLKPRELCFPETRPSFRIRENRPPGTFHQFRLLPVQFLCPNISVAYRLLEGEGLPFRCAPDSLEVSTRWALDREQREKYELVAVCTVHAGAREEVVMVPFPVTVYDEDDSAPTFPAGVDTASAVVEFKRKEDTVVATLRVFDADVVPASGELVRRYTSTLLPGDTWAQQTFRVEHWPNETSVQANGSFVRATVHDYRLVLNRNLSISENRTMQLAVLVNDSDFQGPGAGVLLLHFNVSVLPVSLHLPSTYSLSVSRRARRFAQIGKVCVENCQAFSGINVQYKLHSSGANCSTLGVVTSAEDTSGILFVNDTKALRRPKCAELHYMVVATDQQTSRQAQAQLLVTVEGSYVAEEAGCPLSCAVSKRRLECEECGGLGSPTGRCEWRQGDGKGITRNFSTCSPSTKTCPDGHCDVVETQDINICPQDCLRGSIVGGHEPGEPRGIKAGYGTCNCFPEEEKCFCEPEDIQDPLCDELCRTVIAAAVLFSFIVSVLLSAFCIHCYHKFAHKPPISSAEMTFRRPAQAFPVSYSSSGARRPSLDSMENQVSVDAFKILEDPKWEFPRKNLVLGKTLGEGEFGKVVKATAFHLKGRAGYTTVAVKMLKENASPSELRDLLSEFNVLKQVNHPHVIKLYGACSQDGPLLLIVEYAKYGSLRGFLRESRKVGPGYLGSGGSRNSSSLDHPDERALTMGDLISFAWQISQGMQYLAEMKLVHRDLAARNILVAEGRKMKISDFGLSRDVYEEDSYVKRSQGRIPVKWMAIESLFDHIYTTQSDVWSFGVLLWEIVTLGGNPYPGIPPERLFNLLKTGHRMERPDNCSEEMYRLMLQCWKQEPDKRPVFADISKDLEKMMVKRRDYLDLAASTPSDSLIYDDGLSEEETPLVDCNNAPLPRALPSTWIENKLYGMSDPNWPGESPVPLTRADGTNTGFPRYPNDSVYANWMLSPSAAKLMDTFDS

[7] = target: T7, 97 kinases (Homo sapiens, UniProt Q02156); assay: scanEDGE off-target screen; format: binding; settings: read-out: %Ctrl PRKCE
T7 construct: purchased Ambit Biosciences (scanEDGE / KINOMEscan) scanEDGE 97 kinase panel; host or cells: T7 phage in E. coli BL21-derived host; remaining kinases in HEK-293 cells

[8] = target: T8, 97 kinases (Homo sapiens, UniProt P52333); assay: scanEDGE off-target screen; format: binding; settings: read-out: %Ctrl JAK3(JH1domain-catalytic)
T8 construct: purchased Ambit Biosciences (scanEDGE / KINOMEscan) scanEDGE 97 kinase panel; host or cells: T7 phage in E. coli BL21-derived host; remaining kinases in HEK-293 cells

[9] = target: T9, 97 kinases (Homo sapiens, UniProt P51812); assay: scanEDGE off-target screen; format: binding; settings: read-out: %Ctrl RSK2(Kin.Dom.1-N-terminal)
T9 construct: purchased Ambit Biosciences (scanEDGE / KINOMEscan) scanEDGE 97 kinase panel; host or cells: T7 phage in E. coli BL21-derived host; remaining kinases in HEK-293 cells

[10] = target: T10, 97 kinases (Homo sapiens, UniProt P50750); assay: scanEDGE off-target screen; format: binding; settings: read-out: %Ctrl CDK9
T10 construct: purchased Ambit Biosciences (scanEDGE / KINOMEscan) scanEDGE 97 kinase panel; host or cells: T7 phage in E. coli BL21-derived host; remaining kinases in HEK-293 cells

[11] = target: T11, 97 kinases (Homo sapiens, UniProt P21802); assay: scanEDGE off-target screen; format: binding; settings: read-out: %Ctrl FGFR2
T11 construct: purchased Ambit Biosciences (scanEDGE / KINOMEscan) scanEDGE 97 kinase panel; host or cells: T7 phage in E. coli BL21-derived host; remaining kinases in HEK-293 cells

[12] = target: T12, 97 kinases (Homo sapiens, UniProt Q9BUB5); assay: scanEDGE off-target screen; format: binding; settings: read-out: %Ctrl MKNK1
T12 construct: purchased Ambit Biosciences (scanEDGE / KINOMEscan) scanEDGE 97 kinase panel; host or cells: T7 phage in E. coli BL21-derived host; remaining kinases in HEK-293 cells

[13] = target: T13, 97 kinases (Homo sapiens, UniProt Q8NI60); assay: scanEDGE off-target screen; format: binding; settings: read-out: %Ctrl ADCK3
T13 construct: purchased Ambit Biosciences (scanEDGE / KINOMEscan) scanEDGE 97 kinase panel; host or cells: T7 phage in E. coli BL21-derived host; remaining kinases in HEK-293 cells

[14] = target: T14, 97 kinases (Homo sapiens, UniProt O60674); assay: scanEDGE off-target screen; format: binding; settings: read-out: %Ctrl JAK2(JH1domain-catalytic)
T14 construct: purchased Ambit Biosciences (scanEDGE / KINOMEscan) scanEDGE 97 kinase panel; host or cells: T7 phage in E. coli BL21-derived host; remaining kinases in HEK-293 cells
T14 sequence (O60674 whole entry): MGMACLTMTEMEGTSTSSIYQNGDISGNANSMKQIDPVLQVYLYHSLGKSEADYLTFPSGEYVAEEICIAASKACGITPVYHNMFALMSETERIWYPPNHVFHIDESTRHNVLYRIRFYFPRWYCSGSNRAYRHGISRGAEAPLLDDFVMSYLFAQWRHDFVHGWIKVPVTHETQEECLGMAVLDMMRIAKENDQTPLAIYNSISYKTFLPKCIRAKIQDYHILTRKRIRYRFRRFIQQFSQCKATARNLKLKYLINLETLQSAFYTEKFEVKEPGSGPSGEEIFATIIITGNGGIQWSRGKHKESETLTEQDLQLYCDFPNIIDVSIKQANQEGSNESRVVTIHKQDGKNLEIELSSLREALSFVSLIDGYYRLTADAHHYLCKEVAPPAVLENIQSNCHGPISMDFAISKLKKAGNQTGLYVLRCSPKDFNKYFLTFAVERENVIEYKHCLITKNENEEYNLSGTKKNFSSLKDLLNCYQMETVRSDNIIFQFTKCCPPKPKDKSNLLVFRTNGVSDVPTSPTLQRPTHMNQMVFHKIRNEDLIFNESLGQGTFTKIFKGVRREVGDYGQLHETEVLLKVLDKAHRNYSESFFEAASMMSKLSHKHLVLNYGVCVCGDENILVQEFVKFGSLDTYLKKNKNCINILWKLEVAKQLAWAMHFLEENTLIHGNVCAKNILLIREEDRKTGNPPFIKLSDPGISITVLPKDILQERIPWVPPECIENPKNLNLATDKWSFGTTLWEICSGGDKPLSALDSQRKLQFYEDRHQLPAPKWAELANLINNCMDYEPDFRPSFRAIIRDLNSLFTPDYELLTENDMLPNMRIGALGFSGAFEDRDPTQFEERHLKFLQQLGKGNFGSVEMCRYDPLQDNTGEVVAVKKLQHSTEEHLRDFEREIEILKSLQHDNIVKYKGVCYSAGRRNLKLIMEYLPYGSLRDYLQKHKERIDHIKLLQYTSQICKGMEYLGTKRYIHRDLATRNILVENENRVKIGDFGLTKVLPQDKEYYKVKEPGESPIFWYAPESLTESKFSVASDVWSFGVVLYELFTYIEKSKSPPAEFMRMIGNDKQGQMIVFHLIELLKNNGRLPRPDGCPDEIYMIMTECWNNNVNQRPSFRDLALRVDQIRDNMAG

[15] = target: T15, 97 kinases (Homo sapiens, UniProt P27448); assay: scanEDGE off-target screen; format: binding; settings: read-out: %Ctrl MARK3
T15 construct: purchased Ambit Biosciences (scanEDGE / KINOMEscan) scanEDGE 97 kinase panel; host or cells: T7 phage in E. coli BL21-derived host; remaining kinases in HEK-293 cells

[16] = target: T16, 97 kinases (Homo sapiens, UniProt Q15303); assay: scanEDGE off-target screen; format: binding; settings: read-out: %Ctrl ERBB4
T16 construct: purchased Ambit Biosciences (scanEDGE / KINOMEscan) scanEDGE 97 kinase panel; host or cells: T7 phage in E. coli BL21-derived host; remaining kinases in HEK-293 cells
T16 sequence (Q15303 26-1308): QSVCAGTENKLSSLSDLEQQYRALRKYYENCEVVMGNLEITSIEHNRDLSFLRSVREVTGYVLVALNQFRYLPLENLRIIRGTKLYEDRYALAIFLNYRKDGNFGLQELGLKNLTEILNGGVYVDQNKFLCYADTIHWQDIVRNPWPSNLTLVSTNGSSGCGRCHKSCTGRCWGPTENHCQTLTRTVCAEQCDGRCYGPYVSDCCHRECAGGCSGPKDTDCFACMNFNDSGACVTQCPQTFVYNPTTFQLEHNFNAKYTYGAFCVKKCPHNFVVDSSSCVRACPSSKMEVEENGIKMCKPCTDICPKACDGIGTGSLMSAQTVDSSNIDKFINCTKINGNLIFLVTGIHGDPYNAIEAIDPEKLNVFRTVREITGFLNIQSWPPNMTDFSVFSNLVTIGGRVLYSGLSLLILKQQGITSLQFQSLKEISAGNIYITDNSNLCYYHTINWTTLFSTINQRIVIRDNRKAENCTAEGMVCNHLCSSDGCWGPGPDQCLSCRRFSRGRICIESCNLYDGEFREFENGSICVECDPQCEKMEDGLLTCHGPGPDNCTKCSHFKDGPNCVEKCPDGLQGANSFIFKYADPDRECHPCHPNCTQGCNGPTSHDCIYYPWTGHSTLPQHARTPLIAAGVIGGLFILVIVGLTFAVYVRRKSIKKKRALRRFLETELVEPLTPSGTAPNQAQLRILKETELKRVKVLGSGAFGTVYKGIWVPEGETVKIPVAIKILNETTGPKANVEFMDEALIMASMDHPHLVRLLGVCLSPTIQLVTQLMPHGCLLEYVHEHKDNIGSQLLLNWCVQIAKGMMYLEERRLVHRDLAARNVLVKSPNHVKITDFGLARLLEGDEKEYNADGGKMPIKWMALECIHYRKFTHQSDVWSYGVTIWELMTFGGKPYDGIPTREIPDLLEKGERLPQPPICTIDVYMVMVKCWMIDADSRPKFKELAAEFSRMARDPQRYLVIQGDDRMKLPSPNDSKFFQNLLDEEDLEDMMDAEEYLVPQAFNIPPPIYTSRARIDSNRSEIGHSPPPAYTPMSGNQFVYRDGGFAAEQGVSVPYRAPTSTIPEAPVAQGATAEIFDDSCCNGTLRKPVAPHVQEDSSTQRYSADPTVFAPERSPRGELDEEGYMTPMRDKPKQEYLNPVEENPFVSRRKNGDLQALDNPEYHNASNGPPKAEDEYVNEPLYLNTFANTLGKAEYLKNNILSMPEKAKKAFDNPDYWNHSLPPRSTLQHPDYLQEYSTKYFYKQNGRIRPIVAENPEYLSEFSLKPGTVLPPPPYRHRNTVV

[17] = target: T17, 97 kinases (Homo sapiens, UniProt Q13177); assay: scanEDGE off-target screen; format: binding; settings: read-out: %Ctrl PAK2
T17 construct: purchased Ambit Biosciences (scanEDGE / KINOMEscan) scanEDGE 97 kinase panel; host or cells: T7 phage in E. coli BL21-derived host; remaining kinases in HEK-293 cells

[18] = target: T18, 97 kinases (Homo sapiens, UniProt O00750); assay: scanEDGE off-target screen; format: binding; settings: read-out: %Ctrl PIK3C2B
T18 construct: purchased Ambit Biosciences (scanEDGE / KINOMEscan) scanEDGE 97 kinase panel; host or cells: T7 phage in E. coli BL21-derived host; remaining kinases in HEK-293 cells

[19] = target: T19, 97 kinases (Homo sapiens, UniProt O15530); assay: scanEDGE off-target screen; format: binding; settings: read-out: %Ctrl PDPK1
T19 construct: purchased Ambit Biosciences (scanEDGE / KINOMEscan) scanEDGE 97 kinase panel; host or cells: T7 phage in E. coli BL21-derived host; remaining kinases in HEK-293 cells

[20] = target: T20, 97 kinases (Homo sapiens, UniProt Q05397); assay: scanEDGE off-target screen; format: binding; settings: read-out: %Ctrl FAK
T20 construct: purchased Ambit Biosciences (scanEDGE / KINOMEscan) scanEDGE 97 kinase panel; host or cells: T7 phage in E. coli BL21-derived host; remaining kinases in HEK-293 cells

[21] = target: T21, 97 kinases (Homo sapiens, UniProt Q96GD4); assay: scanEDGE off-target screen; format: binding; settings: read-out: %Ctrl AURKB
T21 construct: purchased Ambit Biosciences (scanEDGE / KINOMEscan) scanEDGE 97 kinase panel; host or cells: T7 phage in E. coli BL21-derived host; remaining kinases in HEK-293 cells

[22] = target: T22, 97 kinases (Homo sapiens, UniProt P50613); assay: scanEDGE off-target screen; format: binding; settings: read-out: %Ctrl CDK7
T22 construct: purchased Ambit Biosciences (scanEDGE / KINOMEscan) scanEDGE 97 kinase panel; host or cells: T7 phage in E. coli BL21-derived host; remaining kinases in HEK-293 cells
T22 sequence (P50613 whole entry): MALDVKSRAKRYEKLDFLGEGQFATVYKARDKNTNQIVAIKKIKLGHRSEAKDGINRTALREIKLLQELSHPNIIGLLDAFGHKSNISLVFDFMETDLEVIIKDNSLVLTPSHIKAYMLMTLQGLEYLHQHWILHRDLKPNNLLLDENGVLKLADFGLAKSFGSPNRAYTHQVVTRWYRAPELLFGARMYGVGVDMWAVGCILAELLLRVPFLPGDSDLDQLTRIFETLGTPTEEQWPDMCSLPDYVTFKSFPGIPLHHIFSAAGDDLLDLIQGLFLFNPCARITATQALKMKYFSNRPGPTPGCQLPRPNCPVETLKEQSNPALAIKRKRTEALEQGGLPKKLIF

## CC(C)(C)CNCCn1c(Sc2cc3c(cc2I)OCO3)nc2c(N)ncnc21 [Compound 85]
[1]; 15 min
  % PU-HZ151 remaining: 65.9%
[1]; 30 min
  % PU-HZ151 remaining: 47.3%
[1]; 60 min
  % PU-HZ151 remaining: 26.3%
[1]; furafylline
  inhibition of PU-HZ151 metabolism: 11%
[2]
  remaining binding at 10 µM: 88%
[3]
  remaining binding at 10 µM: 91%
[4]
  remaining binding at 10 µM: 100%
[5]
  remaining binding at 10 µM: 76%
[6]
  remaining binding at 10 µM: 100%
[7]
  remaining binding at 10 µM: 100%
[8]
  remaining binding at 10 µM: 86%
[9]
  remaining binding at 10 µM: 84%
[10]
  remaining binding at 10 µM: 91%
[11]
  remaining binding at 10 µM: 63%
[12]
  remaining binding at 10 µM: 100%
[13]
  remaining binding at 10 µM: 92%
[14]
  remaining binding at 10 µM: 100%
[15]
  remaining binding at 10 µM: 100%
[16]
  remaining binding at 10 µM: 100%
[17]
  remaining binding at 10 µM: 97%
[18]
  remaining binding at 10 µM: 96%
[19]
  remaining binding at 10 µM: 77%
[20]
  remaining binding at 10 µM: 96%
[21]
  remaining binding at 10 µM: 73%
[22]
  remaining binding at 10 µM: 79%
